Assay results as given in patent US20230322789A1, “PYRAZOLOPYRIDAZINONE COMPOUND, AND PHARMACEUTICAL COMPOSITION AND USE THEREOF” (BroadenBio Co., Ltd., priority 2020, published 2023).

Key:
Human Jurkat-E6-1 cells = experiment: Measurement of IL-2 secretion of Jurkat cells by ELISA; type: cell-based; conditions: Homo sapiens, Jurkat E6.1, anti-CD3/anti-CD28 stimulation 24 hours, read-out: Percentage of the amount of IL-2 secreted from compound treated/DMSO-treated cells; for activity at 3 µM: test compound 3.0 μM
In short: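 Jurkat-E6-1 cells pre-incubated with compound for 30 min at 37° C, then stimulated 24 h with plate-bound anti-CD3 plus soluble anti-CD28. Secreted IL-2 in medium quantified by sandwich ELISA against a standard curve; expressed as percent of DMSO-treated cells.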

HPK1 = HPK1 (Homo sapiens (Human), UniProt Q92918); experiment: HPK1 kinase activity inhibition test (ADP-Glo, luminescence); type: biochemical; conditions: HPK1 5 nM, ATP 2 μM, read-out: IC50, inhibitory effects of compounds on HPK1 kinase activity
Chain of HPK1 (Q92918 whole entry): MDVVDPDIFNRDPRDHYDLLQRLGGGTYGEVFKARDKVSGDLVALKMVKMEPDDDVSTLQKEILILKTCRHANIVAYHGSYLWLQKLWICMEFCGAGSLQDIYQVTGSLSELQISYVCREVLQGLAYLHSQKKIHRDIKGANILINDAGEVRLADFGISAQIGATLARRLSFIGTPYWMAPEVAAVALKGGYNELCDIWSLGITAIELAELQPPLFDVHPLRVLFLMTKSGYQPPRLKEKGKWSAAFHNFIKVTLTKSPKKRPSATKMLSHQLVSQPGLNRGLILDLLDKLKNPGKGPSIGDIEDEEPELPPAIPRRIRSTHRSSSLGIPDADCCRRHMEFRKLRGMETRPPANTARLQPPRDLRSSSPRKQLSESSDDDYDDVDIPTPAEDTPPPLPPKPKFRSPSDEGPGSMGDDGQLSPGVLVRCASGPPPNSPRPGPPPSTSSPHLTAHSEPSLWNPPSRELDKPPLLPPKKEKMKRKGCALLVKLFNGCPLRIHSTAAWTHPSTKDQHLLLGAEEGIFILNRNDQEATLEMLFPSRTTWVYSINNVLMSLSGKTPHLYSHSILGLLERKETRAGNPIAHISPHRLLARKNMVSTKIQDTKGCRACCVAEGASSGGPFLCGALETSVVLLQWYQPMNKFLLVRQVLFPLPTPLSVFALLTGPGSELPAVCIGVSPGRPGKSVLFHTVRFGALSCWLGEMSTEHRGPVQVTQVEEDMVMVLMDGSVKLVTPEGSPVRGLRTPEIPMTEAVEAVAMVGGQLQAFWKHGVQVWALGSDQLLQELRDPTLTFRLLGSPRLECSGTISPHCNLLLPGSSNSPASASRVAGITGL
In short: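 HPK1 autophosphorylation was run without added substrate. Kinase and compound were preincubated 10 min at 25° C., then ATP was added for 60 min at 25° C. ADP formed was detected by ADP-Glo luminescence, and IC50 was taken from a four-parameter nonlinear fit.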

SMILES: COc1cccc(F)c1-n1nc2c(-c3ccc4c(c3)CN(C)CC4)n[nH]c2cc1=O [Compound 73, 5-(2-fluoro-6-methoxyphenyl)-3-(2-methyl-1,2,3,4-tetrahydroisoquinolin-7-yl)-1H-pyrazolo[4,3-c]pyridazin-6(5H)-one]
- activity at 3 µM (Human Jurkat-E6-1 cells): 926%
- IC50 (HPK1): ≤ 50 nM

SMILES: Cc1cccc(F)c1-n1nc2c(-c3ccc(N4CCN(C)CC4)cc3)n[nH]c2cc1=O [Compound 1, 5-(2-fluoro-6-methylphenyl)-3-(4-(4-methylpiperazin-1-yl)phenyl)-1H-pyrazolo[4,3-c]pyridazin-6(5H)-one]
- activity at 1 µM (Human Jurkat-E6-1 cells; test compound 1.0 μM): 277%
- IC50 (HPK1): ≤ 50 nM

SMILES: COc1cccc(F)c1-n1nc2c(-c3ccc(N4CCN(CC(C)(C)O)CC4)cc3)n[nH]c2cc1=O [Compound 115, 5-(2-fluoro-6-methoxyphenyl)-3-(4-(4-(2-hydroxyl-2-methylpropyl)piperazin-1-yl)phenyl)-1H-pyrazolo[4,3-c]pyridazin-6(5H)-one]
- activity at 3 µM (Human Jurkat-E6-1 cells): 542%
- IC50 (HPK1): ≤ 50 nM
